Measurements taken from ChEMBL document CHEMBL1201862, “PubChem BioAssay data set” (2004).
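All cell lines were grown in 96-well plates and treated with compound for 48 hours. GI50 = concentration required for 50% inhibition of growth.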 Calls of active or inactive are those of the source. Rule as the data show it: active = GI50 up to about 1.1 µM and inactive = higher.

Tests used:
Assay in all cases: NCI tumour cell line growth inhibition, 48 h
SW-620 = system: SW-620
XF498 = system: XF498
SR = system: SR
A498 = system: A498
IGROV-1 = system: IGROV-1
COLO 205 = system: COLO 205
SK-OV-3 = system: SK-OV-3
ACHN = system: ACHN
SNB-19 = system: SNB-19
TK-10 = system: TK-10
CCRF-CEM = system: CCRF-CEM
OVCAR-3 = system: OVCAR-3
HCC 2998 = system: HCC 2998
786-0 = system: 786-0
SK-MEL-5 = system: SK-MEL-5
OVCAR-4 = system: OVCAR-4
Hs-578T = system: Hs-578T
DU-145 = system: DU-145
MCF7 = system: MCF7
MDA-MB-231 = system: MDA-MB-231

Measured: GI50

CCCCNC(=O)NNC(=O)c1cc(/C=C/c2cccc([N+](=O)[O-])c2)ncn1
inactive: SW-620 16.7 µM | XF498 > 100 µM | SR 34.8 µM | A498 > 100 µM | IGROV-1 > 100 µM | COLO 205 > 100 µM | SK-OV-3 > 100 µM | ACHN > 100 µM | SNB-19 > 100 µM | TK-10 > 100 µM | CCRF-CEM > 100 µM | OVCAR-3 > 100 µM | HCC 2998 > 100 µM | 786-0 > 100 µM | SK-MEL-5 > 100 µM

CCOC(=O)C(=O)Nc1cccc(Cl)c1C
inactive: SW-620 > 100 µM | XF498 49.8 µM | IGROV-1 > 100 µM | COLO 205 > 100 µM | SK-OV-3 > 100 µM | ACHN > 100 µM | SNB-19 > 100 µM | TK-10 > 100 µM | CCRF-CEM > 100 µM | OVCAR-3 > 100 µM | HCC 2998 > 100 µM | 786-0 > 100 µM | SK-MEL-5 > 100 µM | OVCAR-4 > 100 µM

COc1cc(-c2ccc(NC(=O)SCCC(=O)O)cc2OC)ccc1NC(=O)SCCC(=O)O
inactive: SW-620 > 100 µM | XF498 74.3 µM | SR > 100 µM | A498 > 100 µM | COLO 205 > 100 µM | ACHN > 100 µM | SNB-19 > 100 µM | TK-10 > 100 µM | CCRF-CEM 98.2 µM | OVCAR-3 > 100 µM | 786-0 > 100 µM | SK-MEL-5 > 100 µM | OVCAR-4 > 100 µM

COc1ccc(/C(=N\NC(=O)C(=O)NN)C(c2ccc(OC)cc2)C2(O)C(=O)Nc3ccccc32)cc1 (stereo not given)
inactive: SW-620 > 100 µM | XF498 29.6 µM | SR 46 µM | A498 48.8 µM | IGROV-1 > 100 µM | COLO 205 > 100 µM | SK-OV-3 > 100 µM | ACHN 82.2 µM | SNB-19 53.3 µM | TK-10 69 µM | CCRF-CEM > 10 µM | OVCAR-3 > 100 µM | 786-0 28.1 µM | SK-MEL-5 22.4 µM

CC(C)(C)C1CCC(=O)C(C(O)CC2CC(=O)N(c3ccccc3)C(=O)C2)C1 (stereo not given)
inactive: SW-620 > 100 µM | XF498 > 100 µM | SR 81.3 µM | A498 > 100 µM | IGROV-1 > 100 µM | COLO 205 > 100 µM | SK-OV-3 > 100 µM | ACHN > 100 µM | SNB-19 > 100 µM | TK-10 > 100 µM | CCRF-CEM 53.1 µM | OVCAR-3 > 100 µM | HCC 2998 > 100 µM | 786-0 > 100 µM | OVCAR-4 > 100 µM

CCOC(=O)C(C(=O)c1ccccc1)=C1NCCN1
inactive: SW-620 > 100 µM | XF498 > 100 µM | SR > 100 µM | IGROV-1 > 100 µM | COLO 205 > 100 µM | ACHN > 100 µM | SNB-19 > 100 µM | CCRF-CEM > 100 µM | OVCAR-3 > 100 µM | HCC 2998 > 100 µM | 786-0 > 100 µM | SK-MEL-5 > 100 µM | OVCAR-4 > 100 µM

CCN(CC)CCn1c2c3ccccc3ccc2c2oc(=O)c3ccccc3c21
inactive: SW-620 > 100 µM | XF498 > 100 µM | SR 34.7 µM | IGROV-1 68.1 µM | COLO 205 > 100 µM | SK-OV-3 > 100 µM | ACHN > 100 µM | SNB-19 80 µM | TK-10 > 100 µM | CCRF-CEM > 100 µM | OVCAR-3 > 100 µM | 786-0 22.9 µM | OVCAR-4 28.1 µM

Cc1cc(O)nc(CNC(=O)Cc2ccccc2)n1
inactive: SW-620 > 100 µM | XF498 > 100 µM | A498 > 100 µM | IGROV-1 > 100 µM | COLO 205 > 100 µM | SK-OV-3 > 100 µM | ACHN > 100 µM | SNB-19 > 100 µM | TK-10 > 100 µM | CCRF-CEM > 100 µM | OVCAR-3 > 100 µM | HCC 2998 > 100 µM | 786-0 > 100 µM | OVCAR-4 > 100 µM

COc1ccc(C2Cc3cc(OC)c(OC)c(OC)c3C2=O)cc1 (stereo not given)
inactive: SW-620 > 100 µM | XF498 2 µM | A498 > 100 µM | IGROV-1 > 100 µM | COLO 205 > 100 µM | SK-OV-3 > 100 µM | ACHN > 100 µM | SNB-19 > 100 µM | TK-10 > 100 µM | CCRF-CEM > 100 µM | OVCAR-3 > 100 µM | HCC 2998 > 100 µM | 786-0 > 100 µM | SK-MEL-5 75.3 µM | OVCAR-4 > 100 µM

N/N=C(/C=C1\C(=O)Nc2ccccc21)c1ccccc1
inactive: SW-620 15.9 µM | SR 40.8 µM | A498 28.5 µM | IGROV-1 30.4 µM | COLO 205 19.9 µM | SK-OV-3 32.1 µM | ACHN 45.1 µM | SNB-19 27.6 µM | TK-10 42.8 µM | CCRF-CEM 13.2 µM | OVCAR-3 18.2 µM | Hs-578T 15.4 µM | HCC 2998 20 µM | 786-0 25.3 µM | DU-145 37.2 µM | SK-MEL-5 10.5 µM | MCF7 18.9 µM | MDA-MB-231 20.3 µM | OVCAR-4 58.7 µM

N#CCCN(c1ccc(C=O)cc1)S(=O)(=O)c1ccccc1
inactive: SW-620 > 100 µM | XF498 > 100 µM | SR > 100 µM | A498 > 100 µM | IGROV-1 > 100 µM | SK-OV-3 > 100 µM | ACHN > 100 µM | SNB-19 > 100 µM | OVCAR-3 > 100 µM | HCC 2998 > 100 µM | 786-0 > 100 µM | SK-MEL-5 > 100 µM | OVCAR-4 > 100 µM

CN(C)CCNC(=O)c1cnn(C)c1[N+](=O)[O-]
inactive: SW-620 79.6 µM | SR > 100 µM | A498 > 100 µM | IGROV-1 > 100 µM | COLO 205 21.6 µM | SK-OV-3 > 100 µM | ACHN > 100 µM | SNB-19 > 100 µM | TK-10 > 100 µM | CCRF-CEM > 100 µM | OVCAR-3 24.5 µM | Hs-578T > 100 µM | HCC 2998 > 100 µM | 786-0 > 100 µM | DU-145 > 100 µM | SK-MEL-5 44.5 µM | MCF7 63.4 µM | MDA-MB-231 > 100 µM | OVCAR-4 76.7 µM

O=C(N/N=C/c1cccc(O)c1O)N/N=C/c1cccc(O)c1O
inactive: SW-620 17.5 µM | XF498 19.1 µM | A498 32.1 µM | IGROV-1 48.1 µM | COLO 205 > 100 µM | SK-OV-3 > 100 µM | ACHN 13.9 µM | SNB-19 30.2 µM | TK-10 29.4 µM | CCRF-CEM 3.5 µM | OVCAR-3 2.51 µM | 786-0 15.1 µM | OVCAR-4 28.2 µM
